Broadly, the IC50 is the concentration that inhibits the measured activity by half.

Molecules are shown by their SMILES.

The record followed here is patent US9884863B2, “STAT3 inhibitor” (Board of Regents, The University of Texas System, priority 2013, dated 2018).

The subject of one assay is AsPC1. Kind of assay: MTS cell proliferation assay, AsPC1. Format: cell-based, human. Particulars: Homo sapiens, ASPC1, 72 h, read-out: IC50 AsPC1 (Table 4). Put shortly: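 Cells seeded at 2×10^3 cells/well and exposed 72 h to DMSO or 0.01–100 μM STAT3 inhibitor, quadruplicate wells per concentration. Proliferation read by MTS reduction, OD 550 nm after 1 h at 37 °C.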
Background: Tetrazolium dyes change colour on reduction, which living cells bring about.

The test system of assay [1] is STAT3 and pSTAT3 in MDA-MB-231 xenograft tumors. Kind of assay: IHC and Western blot of xenograft tumors. The assay is classed as in vivo, mice. Particulars: oral gavage 14 days. An excerpt:
Immunohistochemistry (IHC): Paraffin blocks of the collected tissue were sectioned into 4 μm thickness and stained with H&E as a reference. All slides were subjected to phospho-STAT3 (Y705) IHC with ABC staining method. Rabbit or mouse IgG ABC kit was purchased from Vector Laboratories (Burlingame, Calif., USA) and ABC staining reagents were purchased from Sigma Aldrich (Louis, Mo., USA). PBS was used instead of primary antibody as a negative control.
On the technique in general: A western blot detects proteins with antibodies after separation by electrophoresis.

In assay [2] the test system is STAT3 promoter activity in MDA-MB-231 cells. Briefly: Transient transfection and dual luciferase reporter assay (pSTAT3-Luc). The assay is classed as cell-based, human. The settings on record: 24 h. The protocol:
MDA-MB-231 cells were pre-treated with niclosamide or 11 at different concentrations for 24 h. The STAT3 promoter activity in MDA-MB-231 cells was determined after transient transfecting with pSTAT3-Luc vector.
Transient Transfection and Dual Luciferase Reporter Assays. MBA-MB-231 cells were seeded in 24-well plate at a density of 5×10^4 cells/well in RPMI-1640 medium containing 10% FBS and 1% penicillin-streptomycin. Transient transfections were performed 4 h after plating, using the method described previously (Rees, D. C. et al., 2004; Shen, Q. et al., 2008). Total amount of DNA for transfections was 0.5 μg/well, including pSTAT3-Luc (95%, obtained from Panomics, Cat# LR0077) and internal control vector renilla (5%, from Promega, Madison, Wis., USA). 5 h after transfection, the cells were treated with compound […] for 24 h, then reporter activity was evaluated using dual luciferase reporter assay kit (Promega, Madison, Wis., USA) on an Omega™ Microplate Luminometer (BMG LABTECH Inc., NC, USA). Relative luciferase units were the ratio of the absolute activity of firefly luciferase to that of renilla luciferase. Experiments were conducted with triplicates and results are representatives of at least 3 independent experiments.
For orientation: A reporter such as luciferase makes a cellular process visible.

The test system of another assay is MCF-7. Kind of assay: MTS cell proliferation assay, MCF-7. The assay is classed as cell-based, human. The settings on record: Homo sapiens, MCF7, 72 h, read-out: IC50 MCF-7 (Table 4). Put shortly:
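MCF-7 human breast cancer cells were exposed to test compounds at a range of concentrations, then proliferation was measured with the MTS reagent from Promega's CellTiter 96 AQueous Non-Radioactive Cell Proliferation Assay kit. After 1 hr at 37° C., OD at 550 nm was read on a 96-well iMark Microplate Absorbance Reader, with quadruplicate wells per concentration.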

For the compound `O=C(Nc1ccc([N+](=O)[O-])cc1Cl)c1cc(Cl)ccc1O` [niclosamide, reference compound], the IC50 in the assay with AsPC1 was found to be 1470 nM; with MCF-7, 1060 nM. For the same compound, the “STAT3 and pSTAT3 (Y705 and S727) in tumor lysates, Western blot” value in assay [1] was “decreased”. In addition, the “STAT3 promoter activity at 20 μM, in words” value in assay [2] is recorded as “suppressed”.
